In patent publication US20240365781A1, “SYNERGISTICALLY EFFECTIVE HERBICIDE COMPOSITION COMPRISING PELARGONIC ACID AND FLAZASULFURON” (Belchim Crop Protection NV, priority 2017, published 2024):

Tests used:
Assay in all cases: post-emergence field trial under rows of apple trees, 150-200 L water/ha (Examples 10-12)
Assay type in all cases: in vivo
Senecio vulgaris = tested on: Senecio vulgaris
Description: (§1) Herbicidal activity was determined by performing a post-emergence test. […] The corresponding mixture was in the form of a spray solution. Besides, spray solutions of individual compositions comprising pelargonic acid or flazasulfuron were used.
(§2) The spray solution was applied on plants of unwanted vegetation present on fields where perennial crops were grown.
(§3) After 5 to 88 days after application of the spray solution, the degree of damage to the unwanted vegetation is rated in % of plants of unwanted vegetation that were killed. Tests were performed on test fields (field trials).

Chenopodium album = tested on: Chenopodium album
Description: as §1, §2, §3

Lolium multiflorum = tested on: Lolium multiflorum
Description: as §1, §2, §3

Capsella bursa-pastoris = tested on: Capsella bursa-pastoris
Description: as §1, §2, §3

Sonchus oleracea = tested on: Sonchus oleracea
Description: as §1, §2, §3

Taraxacum officinalis = tested on: Taraxacum officinalis
Description: as §1, §2, §3

How did the “herbicidal effect (%)” value (Senecio vulgaris; Senecio vulgaris/6 d, 8160 g of active compound/ha) turn out when `CCCCCCCCC(=O)O` [Pelargonic acid, nonanoic acid] was run?
The value was 29%.

And the “herbicidal effect (%)” value (Senecio vulgaris; Senecio vulgaris/6 d, 10880 g of active compound/ha)?
Its value is 29%.

What about the “herbicidal effect (%)” value (Senecio vulgaris; Senecio vulgaris/28 d, 5440 g of active compound/ha) of the same compound?
Its value is 9%.

What about the “herbicidal effect (%)” value (Senecio vulgaris; Senecio vulgaris/28 d, 10880 g of active compound/ha) of the same compound?
The value was 11%.

What about the “herbicidal effect (%)” value (Senecio vulgaris; Senecio vulgaris/58 d, 10880 g of active compound/ha) of the same compound?
The value was 33%.

What about the “herbicidal effect (%)” value (Chenopodium album; Chenopodium album/6 d, 5440 g of active compound/ha) of the same compound?
Its value is 20%.

And the “herbicidal effect (%)” value (Chenopodium album; Chenopodium album/6 d, 8160 g of active compound/ha)?
The value was 50%.

And the “herbicidal effect (%)” value (Chenopodium album; Chenopodium album/6 d, 10880 g of active compound/ha)?
The value was 60%.

What about the “herbicidal effect (%)” value (Chenopodium album; Chenopodium album/16 d, 5440 g of active compound/ha) of the same compound?
The value was 48%.

And the “herbicidal effect (%)” value (Chenopodium album; Chenopodium album/16 d, 8160 g of active compound/ha)?
Its value is 63%.

And the “herbicidal effect (%)” value (Chenopodium album; Chenopodium album/16 d, 10880 g of active compound/ha)?
The value was 63%.

And the “herbicidal effect (%)” value (Chenopodium album; Chenopodium album/30 d, 5440 g of active compound/ha)?
Its value is 55%.

What about the “herbicidal effect (%)” value (Chenopodium album; Chenopodium album/30 d, 8160 g of active compound/ha) of the same compound?
Its value is 58%.

And the “herbicidal effect (%)” value (Chenopodium album; Chenopodium album/30 d, 10880 g of active compound/ha)?
Its value is 70%.

And the “herbicidal effect (%)” value (Chenopodium album; Chenopodium album/57 d, 5440 g of active compound/ha)?
Its value is 0%.

And the “herbicidal effect (%)” value (Chenopodium album; Chenopodium album/57 d, 8160 g of active compound/ha)?
Its value is 0%.

And the “herbicidal effect (%)” value (Chenopodium album; Chenopodium album/57 d, 10880 g of active compound/ha)?
Its value is 0%.

And the “herbicidal effect (%)” value (Chenopodium album; Chenopodium album/78 d, 5440 g of active compound/ha)?
Its value is 0%.

What about the “herbicidal effect (%)” value (Chenopodium album; Chenopodium album/78 d, 8160 g of active compound/ha) of the same compound?
Its value is 0%.

And the “herbicidal effect (%)” value (Chenopodium album; Chenopodium album/78 d, 10880 g of active compound/ha)?
Its value is 0%.

And the “herbicidal effect (%)” value (Lolium multiflorum; Lolium multiflorum/5 d, 5440 g of active compound/ha)?
Its value is 3%.

And the “herbicidal effect (%)” value (Lolium multiflorum; Lolium multiflorum/5 d, 10880 g of active compound/ha)?
The value was 13%.

And the “herbicidal effect (%)” value (Lolium multiflorum; Lolium multiflorum/18 d, 5440 g of active compound/ha)?
Its value is 0%.

And the “herbicidal effect (%)” value (Lolium multiflorum; Lolium multiflorum/18 d, 8160 g of active compound/ha)?
The value was 0%.

What about the “herbicidal effect (%)” value (Lolium multiflorum; Lolium multiflorum/18 d, 10880 g of active compound/ha) of the same compound?
Its value is 0%.

What about the “herbicidal effect (%)” value (Lolium multiflorum; Lolium multiflorum/32 d, 5440 g of active compound/ha) of the same compound?
Its value is 0%.

What about the “herbicidal effect (%)” value (Lolium multiflorum; Lolium multiflorum/32 d, 8160 g of active compound/ha) of the same compound?
Its value is 0%.

What about the “herbicidal effect (%)” value (Lolium multiflorum; Lolium multiflorum/32 d, 10880 g of active compound/ha) of the same compound?
The value was 0%.

What about the “herbicidal effect (%)” value (Lolium multiflorum; Lolium multiflorum/61 d, 5440 g of active compound/ha) of the same compound?
Its value is 0%.

What about the “herbicidal effect (%)” value (Lolium multiflorum; Lolium multiflorum/61 d, 8160 g of active compound/ha) of the same compound?
The value was 0%.

What about the “herbicidal effect (%)” value (Lolium multiflorum; Lolium multiflorum/61 d, 10880 g of active compound/ha) of the same compound?
Its value is 0%.

And the “herbicidal effect (%)” value (Lolium multiflorum; Lolium multiflorum/88 d, 5440 g of active compound/ha)?
Its value is 0%.

What about the “herbicidal effect (%)” value (Lolium multiflorum; Lolium multiflorum/88 d, 8160 g of active compound/ha) of the same compound?
Its value is 0%.

And the “herbicidal effect (%)” value (Lolium multiflorum; Lolium multiflorum/88 d, 10880 g of active compound/ha)?
Its value is 0%.

What about the “herbicidal effect (%)” value (Capsella bursa-pastoris; Capsella bursa-pastoris/6 d, 5440 g of active compound/ha) of the same compound?
Its value is 18%.

What about the “herbicidal effect (%)” value (Capsella bursa-pastoris; Capsella bursa-pastoris/6 d, 8160 g of active compound/ha) of the same compound?
The value was 45%.

And the “herbicidal effect (%)” value (Capsella bursa-pastoris; Capsella bursa-pastoris/6 d, 10880 g of active compound/ha)?
Its value is 45%.

And the “herbicidal effect (%)” value (Capsella bursa-pastoris; Capsella bursa-pastoris/16 d, 5440 g of active compound/ha)?
The value was 53%.

And the “herbicidal effect (%)” value (Capsella bursa-pastoris; Capsella bursa-pastoris/16 d, 8160 g of active compound/ha)?
The value was 40%.

What about the “herbicidal effect (%)” value (Capsella bursa-pastoris; Capsella bursa-pastoris/16 d, 10880 g of active compound/ha) of the same compound?
Its value is 55%.

And the “herbicidal effect (%)” value (Capsella bursa-pastoris; Capsella bursa-pastoris/30 d, 5440 g of active compound/ha)?
The value was 55%.

And the “herbicidal effect (%)” value (Capsella bursa-pastoris; Capsella bursa-pastoris/30 d, 8160 g of active compound/ha)?
Its value is 53%.

And the “herbicidal effect (%)” value (Capsella bursa-pastoris; Capsella bursa-pastoris/30 d, 10880 g of active compound/ha)?
Its value is 60%.

What about the “herbicidal effect (%)” value (Capsella bursa-pastoris; Capsella bursa-pastoris/57 d, 5440 g of active compound/ha) of the same compound?
Its value is 0%.

What about the “herbicidal effect (%)” value (Capsella bursa-pastoris; Capsella bursa-pastoris/57 d, 8160 g of active compound/ha) of the same compound?
The value was 0%.

What about the “herbicidal effect (%)” value (Capsella bursa-pastoris; Capsella bursa-pastoris/57 d, 10880 g of active compound/ha) of the same compound?
Its value is 0%.

What about the “herbicidal effect (%)” value (Sonchus oleracea; Sonchus oleracea/6 d, 5440 g of active compound/ha) of the same compound?
Its value is 25%.

What about the “herbicidal effect (%)” value (Sonchus oleracea; Sonchus oleracea/6 d, 8160 g of active compound/ha) of the same compound?
The value was 50%.

What about the “herbicidal effect (%)” value (Sonchus oleracea; Sonchus oleracea/6 d, 10880 g of active compound/ha) of the same compound?
The value was 55%.

And the “herbicidal effect (%)” value (Sonchus oleracea; Sonchus oleracea/16 d, 5440 g of active compound/ha)?
The value was 48%.

What about the “herbicidal effect (%)” value (Sonchus oleracea; Sonchus oleracea/16 d, 8160 g of active compound/ha) of the same compound?
Its value is 43%.

What about the “herbicidal effect (%)” value (Sonchus oleracea; Sonchus oleracea/16 d, 10880 g of active compound/ha) of the same compound?
Its value is 45%.

And the “herbicidal effect (%)” value (Sonchus oleracea; Sonchus oleracea/30 d, 5440 g of active compound/ha)?
Its value is 40%.

What about the “herbicidal effect (%)” value (Sonchus oleracea; Sonchus oleracea/30 d, 8160 g of active compound/ha) of the same compound?
The value was 48%.

What about the “herbicidal effect (%)” value (Sonchus oleracea; Sonchus oleracea/30 d, 10880 g of active compound/ha) of the same compound?
The value was 53%.

What about the “herbicidal effect (%)” value (Sonchus oleracea; Sonchus oleracea/57 d, 5440 g of active compound/ha) of the same compound?
Its value is 0%.

And the “herbicidal effect (%)” value (Sonchus oleracea; Sonchus oleracea/57 d, 8160 g of active compound/ha)?
The value was 0%.

What about the “herbicidal effect (%)” value (Sonchus oleracea; Sonchus oleracea/57 d, 10880 g of active compound/ha) of the same compound?
Its value is 0%.

And the “herbicidal effect (%)” value (Sonchus oleracea; Sonchus oleracea/78 d, 5440 g of active compound/ha)?
The value was 0%.

What about the “herbicidal effect (%)” value (Sonchus oleracea; Sonchus oleracea/78 d, 8160 g of active compound/ha) of the same compound?
Its value is 0%.

And the “herbicidal effect (%)” value (Sonchus oleracea; Sonchus oleracea/78 d, 10880 g of active compound/ha)?
Its value is 0%.

And the “herbicidal effect (%)” value (Taraxacum officinalis; Taraxacum officinalis/5 d, 5440 g of active compound/ha)?
Its value is 11%.

And the “herbicidal effect (%)” value (Taraxacum officinalis; Taraxacum officinalis/18 d, 5440 g of active compound/ha)?
The value was 0%.

And the “herbicidal effect (%)” value (Taraxacum officinalis; Taraxacum officinalis/18 d, 8160 g of active compound/ha)?
Its value is 0%.

What about the “herbicidal effect (%)” value (Taraxacum officinalis; Taraxacum officinalis/18 d, 10880 g of active compound/ha) of the same compound?
The value was 9%.

And the “herbicidal effect (%)” value (Taraxacum officinalis; Taraxacum officinalis/32 d, 5440 g of active compound/ha)?
Its value is 0%.

And the “herbicidal effect (%)” value (Taraxacum officinalis; Taraxacum officinalis/32 d, 8160 g of active compound/ha)?
Its value is 0%.

What about the “herbicidal effect (%)” value (Taraxacum officinalis; Taraxacum officinalis/32 d, 10880 g of active compound/ha) of the same compound?
The value was 0%.

What about the “herbicidal effect (%)” value (Taraxacum officinalis; Taraxacum officinalis/61 d, 5440 g of active compound/ha) of the same compound?
Its value is 0%.

What about the “herbicidal effect (%)” value (Taraxacum officinalis; Taraxacum officinalis/61 d, 8160 g of active compound/ha) of the same compound?
Its value is 0%.

And the “herbicidal effect (%)” value (Taraxacum officinalis; Taraxacum officinalis/61 d, 10880 g of active compound/ha)?
Its value is 0%.

What about the “herbicidal effect (%)” value (Taraxacum officinalis; Taraxacum officinalis/88 d, 5440 g of active compound/ha) of the same compound?
The value was 0%.

And the “herbicidal effect (%)” value (Taraxacum officinalis; Taraxacum officinalis/88 d, 8160 g of active compound/ha)?
Its value is 0%.

And the “herbicidal effect (%)” value (Taraxacum officinalis; Taraxacum officinalis/88 d, 10880 g of active compound/ha)?
Its value is 0%.
